Tests used:
DIO mice = assay: Food intake and body weight in diet-induced obese mice, repeated treatment; assay type: in vivo
Description: Body weight and food intake were studied because they are reduced by repeated treatment with rimonabant both in mice[31] and in humans. DIO mice were used because the effects of CB1 antagonists are of greater amplitude in obese mice than in lean mice. Male C57BL/6J mice (8 weeks old) were fed ad libitum with a high-fat diet (HFD) for 8 weeks before the start of the pharmacological treatments. During pharmacological treatments, the HFD was maintained, and food intake and body weight were measured daily. The food consumed was calculated by subtracting the food left in the hoppers from the initial pre-weighed amount.

mice [1] = assay: Precipitated withdrawal in THC-dependent mice; assay type: in vivo
Description: From day 1 to days 4–5, mice were injected i.p. with vehicle or THC (20 mg kg^−1) twice per day. On the last day of treatment, mice in the THC group received rimonabant or AEF0117. All other animals received the respective vehicle. […] For the measure of precipitated withdrawal, mice were placed in a novel home cage, and a video camera was positioned in front of each cage to record behavior. Scoring was performed for 1 min every 5-min period. Two withdrawal signs were analyzed—paw tremors and head shaking—because they are the most common signs of THC withdrawal observed in mice[14].

mice [2] = assay: Anxiety-related behavior, elevated plus maze, repeated treatment; assay type: in vivo
Text: (§1) Anxiety-like behaviors were studied in the elevated plus maze (EPM), a rodent model used to evaluate the putative anxiogenic or anxiolytic effects of pharmacological compounds. Depression-related behaviors were studied using the sucrose preference test as a model of anhedonia, one of the cardinal symptoms of depression.
The EPM apparatus comprises four elevated arms arranged in a cross-like shape, with the two opposite arms enclosed by walls and the other two arms open. For all experiments, mice were placed in the center of the EPM and were free to explore the maze for 5 min after receiving the treatment. The time spent and the number of entries into the open and closed arms were measured by an automatic video tracking system (EthoVision XT version 12, Noldus Information Technology). A decrease in the percentage of visits and/or the time spent in open arms is considered an index of increased anxiety.
(§2) The EPM assessment was done on day 26, and the sucrose preference test was done on day 28.

mice [3] = assay: Depression-related behavior, sucrose preference test, repeated treatment; assay type: in vivo
Text: as §1
The sucrose preference test was done in the home cage. Two identical bottles, one containing water and the other containing a 2% sucrose solution, were placed in the hopper of each cage. The mice had unlimited access to water and sucrose solutions during the active phase—the dark phase of the light/dark cycle that started at 20:00. The volume of water and of sucrose solution consumed was measured over two […] intervals, the first between 19:00 and 20:30 and the second between 20:30 and 22:00. At each timepoint, the bottles were weighed, and the intake volume was calculated by subtracting the […].
as §2

mice [4] = assay: Glucocorticoid (corticosterone) secretion in mice; assay type: in vivo; conditions: glucocorticoid, 10 mg/kg the known ID100
Description: Blood sampling was performed 2, 5, 8 and 24 h after dosing (n = 3 per sex per dose per sampling time). For blood sampling, mice were anaesthetized under isoflurane, and blood was collected by cardiac puncture. Blood was centrifuged, and plasma was taken and frozen at −80 °C until quantifications of corticosterone by GC–MS/MS.

mice [5] = system: mice; design: method as in earlier work; conditions: 10 mg/kg, not run in parallel; cited from earlier work

Cc1c(C(=O)NN2CCCCC2)nn(-c2ccc(Cl)cc2Cl)c1-c1ccc(Cl)cc1 [rimonabant, Rimonabant]
body weight in DIO mice vs vehicle (DIO mice; 10 mg/kg): decreased | N fold ID100 at highest dose tested (DIO mice; food-intake, 10 mg/kg the known ID100): 1 | Overall effect: inhibition of spontaneous food-intake (DIO mice; mice, highest dose tested 10 mg/kg, run in parallel): Yes | Overall effect: precipitated withdrawal in THC-dependent mice (mice [1]; highest dose tested 10 mg/kg, run in parallel): Yes | N fold ID100 at highest dose tested (mice [1]; withdrawal, 10 mg/kg the known ID100): 1 | N fold ID100 at highest dose tested (mice [2]; anxiety, 10 mg/kg the known ID100): 1 | Overall effect: increase in anxiety-related behaviors (mice [2]; mice, elevated plus maze, highest dose tested 10 mg/kg, run in parallel): Yes | N fold ID100 at highest dose tested (mice [3]; depression, 10 mg/kg the known ID100): 1 | Overall effect: increase in depression-related behaviors (mice [3]; mice, sucrose preference test, highest dose tested 10 mg/kg, run in parallel): Yes | N fold ID100 at highest dose tested (mice [4]): 1 | Overall effect: increase in glucocorticoid secretion (mice [5]): Yes

Source: paper PMC10287566, “Signaling-specific inhibition of the CB1 receptor for cannabis use disorder: phase 1 and phase 2a randomized trials” (Nature Medicine, 2023)
